The target of assay [1] is Protein-tyrosine kinase 6 (Homo sapiens) (UniProt Q13882). The assay is described as follows: Residual activity of BRK at 0.1 uM by microplate scintillation counting.
The target of assay [2] is Dual specificity mitogen-activated protein kinase kinase 1 (Homo sapiens) (UniProt Q02750). The assay is described as follows: Residual activity of wild type MEK1 at 10 uM by microplate scintillation counting.
In assay [3] the target is T1, Mitogen-activated protein kinase 12 (Homo sapiens) (UniProt P53778).
T1 sequence (whole entry): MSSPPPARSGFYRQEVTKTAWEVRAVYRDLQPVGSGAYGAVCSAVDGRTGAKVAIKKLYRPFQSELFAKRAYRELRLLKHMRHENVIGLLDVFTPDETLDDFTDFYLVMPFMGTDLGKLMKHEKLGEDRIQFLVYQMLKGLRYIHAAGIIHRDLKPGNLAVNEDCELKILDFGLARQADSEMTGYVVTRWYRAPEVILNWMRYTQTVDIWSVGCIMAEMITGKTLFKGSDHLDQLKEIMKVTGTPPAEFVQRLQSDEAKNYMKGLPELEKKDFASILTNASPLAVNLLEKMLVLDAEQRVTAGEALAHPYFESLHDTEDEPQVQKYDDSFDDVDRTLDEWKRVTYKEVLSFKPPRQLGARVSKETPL
The assay is described as follows: Residual activity of p38-gamma at 10 uM by microplate scintillation counting.

For assay [4], the target named is Proto-oncogene tyrosine-protein kinase Src (Homo sapiens) (UniProt P12931). The assay is described as follows: Residual activity of SRC at 10 uM by microplate scintillation counting.
The target of assay [5] is Tyrosine-protein kinase ABL2 (Homo sapiens) (UniProt P42684). The assay is described as follows: Residual activity of ABL2 at 0.1 uM by microplate scintillation counting.
Assay [6] concerns the target T2, Inhibitor of nuclear factor kappa-B kinase subunit epsilon (Homo sapiens) (UniProt Q14164).
T2 sequence (whole entry): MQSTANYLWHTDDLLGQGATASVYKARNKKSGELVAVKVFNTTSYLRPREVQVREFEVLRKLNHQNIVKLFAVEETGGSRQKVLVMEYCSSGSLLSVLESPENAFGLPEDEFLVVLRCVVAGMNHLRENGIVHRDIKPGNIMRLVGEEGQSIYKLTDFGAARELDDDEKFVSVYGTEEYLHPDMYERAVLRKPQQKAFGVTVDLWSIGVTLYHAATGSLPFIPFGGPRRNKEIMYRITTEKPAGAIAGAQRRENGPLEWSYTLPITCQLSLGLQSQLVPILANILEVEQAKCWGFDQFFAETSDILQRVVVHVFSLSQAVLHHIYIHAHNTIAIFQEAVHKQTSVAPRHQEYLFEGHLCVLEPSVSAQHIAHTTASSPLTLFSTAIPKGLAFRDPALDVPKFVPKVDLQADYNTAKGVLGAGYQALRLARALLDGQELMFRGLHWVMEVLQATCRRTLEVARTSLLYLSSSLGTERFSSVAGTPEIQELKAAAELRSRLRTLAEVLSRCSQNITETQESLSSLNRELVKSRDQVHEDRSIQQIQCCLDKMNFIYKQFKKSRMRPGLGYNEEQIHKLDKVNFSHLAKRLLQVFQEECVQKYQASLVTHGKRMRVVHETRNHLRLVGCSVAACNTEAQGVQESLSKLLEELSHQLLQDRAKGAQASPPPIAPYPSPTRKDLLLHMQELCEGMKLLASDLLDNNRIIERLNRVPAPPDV
The assay is described as follows: Residual activity of IKKepsilon at 10 uM by microplate scintillation counting.

Assay [7] deals with Glycogen synthase kinase-3 beta (Homo sapiens) (UniProt P49841). The assay is described as follows: Residual activity of GSK3-beta at 1 uM by microplate scintillation counting.
Assay [8] is described as follows: Residual activity of S6K at 0.1 uM by microplate scintillation counting.
Assay [9] concerns the target T3, Serine/threonine-protein kinase NLK (Homo sapiens) (UniProt Q9UBE8).
T3 sequence (whole entry): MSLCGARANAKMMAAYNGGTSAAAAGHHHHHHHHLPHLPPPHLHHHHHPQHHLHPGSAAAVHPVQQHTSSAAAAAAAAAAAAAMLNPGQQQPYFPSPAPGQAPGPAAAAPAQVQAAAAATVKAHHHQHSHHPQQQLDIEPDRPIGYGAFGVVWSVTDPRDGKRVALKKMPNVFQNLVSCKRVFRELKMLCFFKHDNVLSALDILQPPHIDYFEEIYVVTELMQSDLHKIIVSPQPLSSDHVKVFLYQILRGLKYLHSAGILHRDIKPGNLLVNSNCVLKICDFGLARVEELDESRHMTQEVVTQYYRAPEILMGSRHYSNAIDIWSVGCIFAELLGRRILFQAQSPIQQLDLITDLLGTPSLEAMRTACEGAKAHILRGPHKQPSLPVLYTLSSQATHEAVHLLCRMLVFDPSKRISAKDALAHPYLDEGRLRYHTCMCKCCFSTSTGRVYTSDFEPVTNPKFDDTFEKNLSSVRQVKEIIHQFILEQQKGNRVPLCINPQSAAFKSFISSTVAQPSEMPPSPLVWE
The assay is described as follows: Residual activity of NLK at 1 uM by microplate scintillation counting.

The target of assay [10] is Protein-tyrosine kinase 2-beta (Homo sapiens) (UniProt Q14289). The assay is described as follows: Residual activity of PYK2 at 1 uM by microplate scintillation counting.
Assay [11] deals with SRSF protein kinase 1 (Homo sapiens) (UniProt Q96SB4). The assay is described as follows: Residual activity of SRPK1 at 10 uM by microplate scintillation counting.
Assay [12] addresses PAS domain-containing serine/threonine-protein kinase (Homo sapiens) (UniProt Q96RG2). The assay is described as follows: Residual activity of PASK at 0.1 uM by microplate scintillation counting.
Assay [13] addresses 3-phosphoinositide-dependent protein kinase 1 (Homo sapiens) (UniProt O15530). The assay is described as follows: Residual activity of PDK1 at 10 uM by microplate scintillation counting.
Assay [14] deals with T4, Lymphokine-activated killer T-cell-originated protein kinase (Homo sapiens) (UniProt Q96KB5).
T4 sequence (whole entry): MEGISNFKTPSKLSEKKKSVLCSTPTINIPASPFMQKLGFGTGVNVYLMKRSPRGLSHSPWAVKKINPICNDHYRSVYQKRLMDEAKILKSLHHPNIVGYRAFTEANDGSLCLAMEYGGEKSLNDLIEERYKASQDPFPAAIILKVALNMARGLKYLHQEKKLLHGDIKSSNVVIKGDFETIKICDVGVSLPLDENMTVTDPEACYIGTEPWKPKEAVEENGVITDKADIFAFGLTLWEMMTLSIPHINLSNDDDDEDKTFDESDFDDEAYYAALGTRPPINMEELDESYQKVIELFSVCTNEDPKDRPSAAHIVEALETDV
The assay is described as follows: Residual activity of PBK at 10 uM by microplate scintillation counting.

Assay [15] has as its target Casein kinase I isoform gamma-2 (Homo sapiens) (UniProt P78368). The assay is described as follows: Residual activity of CK1gamma2 at 10 uM by microplate scintillation counting.
Assay [16] deals with G protein-coupled receptor kinase 5 (Homo sapiens) (UniProt P34947). The assay is described as follows: Residual activity of GRK5 at 1 uM by microplate scintillation counting.
Assay [17] has as its target High affinity nerve growth factor receptor (Homo sapiens) (UniProt P04629). The assay is described as follows: Residual activity of TRK-A at 1 uM by microplate scintillation counting.

The structures appear in SMILES notation.

Chain of Casein kinase I isoform gamma-2 (Homo sapiens) (P78368 whole entry, looked up, canonical isoform): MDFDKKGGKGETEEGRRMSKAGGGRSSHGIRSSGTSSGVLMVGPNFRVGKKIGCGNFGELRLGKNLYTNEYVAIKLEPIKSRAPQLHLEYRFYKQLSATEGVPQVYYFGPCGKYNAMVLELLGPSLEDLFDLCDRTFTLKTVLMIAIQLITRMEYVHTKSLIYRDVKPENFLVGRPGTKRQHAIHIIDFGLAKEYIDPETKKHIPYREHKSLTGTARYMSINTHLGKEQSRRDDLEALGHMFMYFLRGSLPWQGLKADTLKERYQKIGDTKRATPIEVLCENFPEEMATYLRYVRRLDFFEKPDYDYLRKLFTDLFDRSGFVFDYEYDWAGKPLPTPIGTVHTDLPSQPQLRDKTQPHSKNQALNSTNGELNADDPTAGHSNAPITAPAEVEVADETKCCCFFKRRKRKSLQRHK
Chain of 3-phosphoinositide-dependent protein kinase 1 (Homo sapiens) (O15530 whole entry, looked up): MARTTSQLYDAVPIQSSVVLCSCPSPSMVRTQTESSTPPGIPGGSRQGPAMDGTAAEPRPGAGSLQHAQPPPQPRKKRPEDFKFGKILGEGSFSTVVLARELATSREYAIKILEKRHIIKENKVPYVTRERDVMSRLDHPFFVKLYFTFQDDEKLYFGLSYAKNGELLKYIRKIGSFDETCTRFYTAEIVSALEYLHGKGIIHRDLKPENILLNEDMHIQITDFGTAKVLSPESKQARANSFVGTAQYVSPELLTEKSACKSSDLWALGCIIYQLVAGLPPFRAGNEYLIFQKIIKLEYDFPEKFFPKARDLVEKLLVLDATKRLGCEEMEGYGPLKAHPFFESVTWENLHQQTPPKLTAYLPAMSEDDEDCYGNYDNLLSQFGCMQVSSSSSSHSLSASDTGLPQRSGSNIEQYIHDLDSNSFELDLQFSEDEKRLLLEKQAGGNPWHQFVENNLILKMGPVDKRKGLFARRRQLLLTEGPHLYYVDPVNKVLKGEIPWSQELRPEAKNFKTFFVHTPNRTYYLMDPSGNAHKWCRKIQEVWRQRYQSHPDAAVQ
Chain of Tyrosine-protein kinase ABL2 (Homo sapiens) (P42684 whole entry): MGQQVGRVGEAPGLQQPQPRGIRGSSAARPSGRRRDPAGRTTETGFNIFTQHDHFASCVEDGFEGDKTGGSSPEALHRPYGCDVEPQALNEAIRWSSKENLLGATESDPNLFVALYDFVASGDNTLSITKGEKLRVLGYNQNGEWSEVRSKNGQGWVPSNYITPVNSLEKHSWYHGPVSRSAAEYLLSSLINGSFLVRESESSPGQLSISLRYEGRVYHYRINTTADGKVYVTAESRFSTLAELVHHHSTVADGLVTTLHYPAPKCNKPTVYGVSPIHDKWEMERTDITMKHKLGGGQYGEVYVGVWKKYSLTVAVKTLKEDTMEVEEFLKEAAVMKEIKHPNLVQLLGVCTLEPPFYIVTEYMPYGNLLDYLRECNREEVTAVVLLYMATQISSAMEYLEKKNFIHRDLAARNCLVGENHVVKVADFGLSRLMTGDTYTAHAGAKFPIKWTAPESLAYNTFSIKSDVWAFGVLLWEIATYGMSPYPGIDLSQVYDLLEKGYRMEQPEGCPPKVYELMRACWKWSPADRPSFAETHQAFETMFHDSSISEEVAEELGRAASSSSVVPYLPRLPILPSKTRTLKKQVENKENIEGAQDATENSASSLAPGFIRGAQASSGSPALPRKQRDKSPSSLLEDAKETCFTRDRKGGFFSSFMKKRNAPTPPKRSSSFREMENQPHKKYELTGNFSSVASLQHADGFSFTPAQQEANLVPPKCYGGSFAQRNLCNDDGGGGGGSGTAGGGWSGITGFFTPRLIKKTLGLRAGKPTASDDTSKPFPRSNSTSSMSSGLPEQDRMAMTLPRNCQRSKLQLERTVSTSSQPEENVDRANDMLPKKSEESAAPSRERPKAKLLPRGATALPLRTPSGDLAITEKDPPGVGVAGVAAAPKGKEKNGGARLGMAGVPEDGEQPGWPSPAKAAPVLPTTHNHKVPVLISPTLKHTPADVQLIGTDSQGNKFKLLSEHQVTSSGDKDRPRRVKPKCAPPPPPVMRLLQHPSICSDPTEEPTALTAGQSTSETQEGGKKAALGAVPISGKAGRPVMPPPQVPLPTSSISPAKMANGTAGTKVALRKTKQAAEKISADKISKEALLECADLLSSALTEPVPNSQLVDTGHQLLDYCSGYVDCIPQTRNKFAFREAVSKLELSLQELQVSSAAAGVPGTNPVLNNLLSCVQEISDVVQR
Chain of Dual specificity mitogen-activated protein kinase kinase 1 (Homo sapiens) (Q02750 whole entry): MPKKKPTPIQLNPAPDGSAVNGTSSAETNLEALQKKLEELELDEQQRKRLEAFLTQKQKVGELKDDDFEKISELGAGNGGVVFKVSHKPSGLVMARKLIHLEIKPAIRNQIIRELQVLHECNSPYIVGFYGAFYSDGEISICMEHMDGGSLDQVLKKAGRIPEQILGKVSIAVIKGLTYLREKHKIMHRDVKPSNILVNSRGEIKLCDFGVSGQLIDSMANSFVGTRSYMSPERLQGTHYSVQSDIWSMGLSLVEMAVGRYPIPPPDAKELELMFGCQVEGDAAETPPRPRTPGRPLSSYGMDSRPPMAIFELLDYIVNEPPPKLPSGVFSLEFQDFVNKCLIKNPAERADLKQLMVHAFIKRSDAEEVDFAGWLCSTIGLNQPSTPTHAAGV
Chain of Proto-oncogene tyrosine-protein kinase Src (Homo sapiens) (P12931 2-536 limits assumed): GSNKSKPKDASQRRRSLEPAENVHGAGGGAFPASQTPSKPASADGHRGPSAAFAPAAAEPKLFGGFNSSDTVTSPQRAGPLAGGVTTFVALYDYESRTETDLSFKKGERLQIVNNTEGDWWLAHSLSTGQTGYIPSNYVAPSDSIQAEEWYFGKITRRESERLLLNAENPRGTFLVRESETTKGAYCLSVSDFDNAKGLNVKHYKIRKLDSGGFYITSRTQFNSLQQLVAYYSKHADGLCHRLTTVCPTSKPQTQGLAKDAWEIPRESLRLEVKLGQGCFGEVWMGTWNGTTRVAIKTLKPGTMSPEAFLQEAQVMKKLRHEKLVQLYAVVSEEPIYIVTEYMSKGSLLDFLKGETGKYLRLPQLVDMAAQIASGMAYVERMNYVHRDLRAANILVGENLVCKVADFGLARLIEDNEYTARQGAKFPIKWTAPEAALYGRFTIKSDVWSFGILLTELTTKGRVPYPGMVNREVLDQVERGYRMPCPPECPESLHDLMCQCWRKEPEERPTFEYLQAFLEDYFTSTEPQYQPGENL
Chain of PAS domain-containing serine/threonine-protein kinase (Homo sapiens) (Q96RG2 whole entry, the tested form may be a part): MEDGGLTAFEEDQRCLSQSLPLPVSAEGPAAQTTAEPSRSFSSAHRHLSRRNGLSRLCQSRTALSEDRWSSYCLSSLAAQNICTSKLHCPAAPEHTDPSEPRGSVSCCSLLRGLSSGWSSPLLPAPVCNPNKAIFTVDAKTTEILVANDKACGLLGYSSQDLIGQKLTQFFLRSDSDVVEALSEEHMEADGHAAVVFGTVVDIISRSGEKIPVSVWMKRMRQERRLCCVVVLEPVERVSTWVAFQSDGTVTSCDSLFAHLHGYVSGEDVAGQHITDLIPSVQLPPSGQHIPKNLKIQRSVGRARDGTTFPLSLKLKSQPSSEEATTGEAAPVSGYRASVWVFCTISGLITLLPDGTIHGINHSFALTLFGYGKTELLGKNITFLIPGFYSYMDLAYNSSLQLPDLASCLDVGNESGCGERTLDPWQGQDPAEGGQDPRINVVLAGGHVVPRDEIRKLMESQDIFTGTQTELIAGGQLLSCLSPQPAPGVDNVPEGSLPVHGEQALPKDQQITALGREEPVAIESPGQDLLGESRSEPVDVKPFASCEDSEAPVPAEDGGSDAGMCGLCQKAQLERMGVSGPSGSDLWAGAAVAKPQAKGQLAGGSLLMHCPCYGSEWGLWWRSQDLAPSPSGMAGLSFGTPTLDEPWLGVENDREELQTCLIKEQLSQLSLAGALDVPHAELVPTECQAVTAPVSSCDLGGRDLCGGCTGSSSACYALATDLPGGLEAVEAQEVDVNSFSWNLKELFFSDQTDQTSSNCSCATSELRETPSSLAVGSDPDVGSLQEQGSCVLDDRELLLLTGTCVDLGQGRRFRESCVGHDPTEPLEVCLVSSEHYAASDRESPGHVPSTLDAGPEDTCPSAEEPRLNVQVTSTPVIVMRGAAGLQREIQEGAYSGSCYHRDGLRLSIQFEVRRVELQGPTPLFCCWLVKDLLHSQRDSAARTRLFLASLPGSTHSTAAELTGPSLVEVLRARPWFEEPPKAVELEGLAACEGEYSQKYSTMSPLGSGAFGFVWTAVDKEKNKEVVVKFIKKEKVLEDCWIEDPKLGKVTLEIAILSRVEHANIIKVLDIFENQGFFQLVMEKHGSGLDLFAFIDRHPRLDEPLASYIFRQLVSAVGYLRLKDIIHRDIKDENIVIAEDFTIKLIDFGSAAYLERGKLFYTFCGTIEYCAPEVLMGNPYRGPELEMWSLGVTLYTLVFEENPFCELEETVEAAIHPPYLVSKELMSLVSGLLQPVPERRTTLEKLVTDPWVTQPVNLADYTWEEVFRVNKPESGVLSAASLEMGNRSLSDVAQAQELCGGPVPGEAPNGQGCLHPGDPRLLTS
Chain of Glycogen synthase kinase-3 beta (Homo sapiens) (P49841 whole entry, looked up): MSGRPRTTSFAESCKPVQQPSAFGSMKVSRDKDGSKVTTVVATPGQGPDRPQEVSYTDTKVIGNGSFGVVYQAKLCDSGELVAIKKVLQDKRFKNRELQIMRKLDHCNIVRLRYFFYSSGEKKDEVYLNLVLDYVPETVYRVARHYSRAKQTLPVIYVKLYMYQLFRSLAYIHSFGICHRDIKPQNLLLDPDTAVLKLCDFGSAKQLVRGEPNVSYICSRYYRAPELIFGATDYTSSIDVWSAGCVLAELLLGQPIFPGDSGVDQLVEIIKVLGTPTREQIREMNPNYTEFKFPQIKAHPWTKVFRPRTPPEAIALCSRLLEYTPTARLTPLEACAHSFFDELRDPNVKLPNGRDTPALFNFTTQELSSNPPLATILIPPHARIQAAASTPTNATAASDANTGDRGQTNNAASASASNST

As for `COc1cc2c(Oc3ccc(-c4nc5ccccc5s4)cc3)ncnc2cc1OCCCN1CCCC1`, the residual activity in [1] worked out at 57%; in [2], 15%; in assay [3], 292%; in assay [4] it was 83%; in assay [5] it was 116%; in assay [6], 99%. The residual activity stood at 91% in assay [7]; 90% in [8]; 96% in assay [9]; 109% in assay [10]; 107% in assay [11]; 99% in [12]. For the same compound, the residual activity in assay [13] came out at 66%; in [14] it was 85%; in assay [15], 198%; in [16], 89%; in assay [17] it was 72%.
In the case of `COc1cc2c(Oc3ccc(-c4nc5ccccc5s4)cc3F)ncnc2cc1OCCCN1CCN(C)CC1`, the residual activity in [1] was 35%; in assay [2], 3%; in assay [3], 207%; in [4], 45%; in assay [5], 96%; in assay [6], 76%. Also, the residual activity in assay [7] was determined as 93%; in assay [8], 87%; in [9], 113%; in [10], 105%; in assay [11], 64%; in [12], 89%. Besides, the residual activity was 61% in assay [13]; 65% in assay [14]; 226% in assay [15]; 90% in assay [16]; 86% in assay [17].
Consider `COc1cc2c(Oc3ccc(-c4nc5ccccc5s4)cc3)ncnc2cc1OCCCN1CCN(C)CC1`, for which the residual activity amounted to 65% in [1]; 26% in assay [2]; 136% in assay [3]; 75% in assay [4]; 100% in assay [5]; 101% in assay [6]. For the same compound, the residual activity in assay [7] came to 84%; in [8], 85%; in assay [9] it was 113%; in [10], 97%; in assay [11] it was 98%; in assay [12], 92%. Further, the residual activity in assay [13] is 67%; in assay [14] it was 102%; in assay [15], 217%; in assay [16], 87%; in assay [17], 83%.

(Values after ChEMBL document CHEMBL1152560, “Substituted 2-arylbenzothiazoles as kinase inhibitors: hit-to-lead optimization” (Bioorg Med Chem, 2009).)
